What was measured:
DAPK [1] = assay: DAPK protein expression/activation in HCEC cells (Western blotting); format: cell-based, human
Procedure: (§1) HCEC cells were kindly provided by Professor Steinberg Pablo (Institute for Food Toxicology and Analytical Chemistry, University of Veterinary Medicine Hannover, Germany) and maintained as previously described.^31 After 24 hours of seeding, cells were either stimulated with 0.66 ng/ml TNF (ImmunoTools) for various time points. For inhibitor experiments cells were pre-incubated for one to two hours with the corresponding inhibitors.
(§2) Protein concentration was measured in duplicates using Bio-rad Dc Protein Assay (BioRad Laboratories, Hercules, CA). Equal amounts of protein were separated by 10% or 12% SDS-PAGE using Laemmli buffer system. Proteins were transferred electrophoretically to nitrocellulose membrane (Millipore Corporation, Billerica, MA, USA) and detected as recently described^33 using following antibodies, anti-DAPK (BD Transduction Laboratories, Lexington NY), anti-pDAPK^S308 (Sigma), anti-STAT3, anti-pSTAT3^γ705, anti-caspase3 (Cell Signaling Technology Inc.), anti-ß-actin (Sigma), or anti-GAPDH (Abnova GmbH, Germany).
Silencing of DAPK expression in HCEC cells was performed by the siRNA technique according to the manufacturer's instructions (Dharmacon, Chicago, IL, USA). […] At the end of the incubation period supernatants and cells were harvested and stored at -80°C until analyzed further. The knockdown efficiency was determined by Western blotting.

IL-6 [2] = assay: IL-6 mRNA expression in HCEC cells (real time RT-PCR); format: cell-based, human; conditions: AG490
Procedure: as §1
Expression of IL-6, IL-8, and DAPK mRNA were analyzed by real time RT-PCR. RNA isolation (mRNeasy RNA isolation kit) and cDNA synthesis (Quantitect reverse transcriptase kit) were performed according to the manufacturer's instructions (Qiagen, Hilden, Germany). 1 µl of cDNA was amplified in a thermal cycler (Biorad CFX-96) with corresponding primers in a total volume of 25 µl using Quantifast SYBR green kit (Qiagen) under the following conditions: 95°C for 5 minutes followed by 26-40 cycles of 95°C for 10 s and 60°C for 30 s. […] The results were expressed as fold induction compared to unstimulated cells after normalising to house-keeping gene. […]

DAPK [3] = assay: DAPK mRNA expression in HCEC cells (real time RT-PCR); format: cell-based, human; conditions: for DAPK mRNA enhanced: 7 µM Stattic + TNF, relative to TNF treatment
Procedure: as §1
Expression of IL-6, IL-8, and DAPK mRNA were analyzed by real time RT-PCR. RNA isolation (mRNeasy RNA isolation kit) and cDNA synthesis (Quantitect reverse transcriptase kit) were performed according to the manufacturer's instructions (Qiagen, Hilden, Germany). 1 µl of cDNA was amplified in a thermal cycler (Biorad CFX-96) with corresponding primers in a total volume of 25 µl using Quantifast SYBR green kit (Qiagen) under the following conditions: 95°C for 5 minutes followed by 26-40 cycles of 95°C for 10 s and 60°C for 30 s. The following primers were used, forward and reverse respectively: DAPK, 5'-[…]-3' and 5'-GATCCCGAGTGGCCAAA-3'; IL-6, 5'-[…]-3' and 5'-[…]-3'; IL-8, 5'-[…]-3' and 5'-[…]-3'; ß2microglobulin (house-keeping gene), 5'-[…]-3' and 5'-[…]-3'; murine DAPK, 5'-[…]-3' and 5'-[…]-3'; murine GAPDH (house-keeping gene), 5'-[…] -3' and 5'-[…] -3'. The results were expressed as fold induction compared to unstimulated cells after normalising to house-keeping gene. All primers were purchased from metabion (metabion international AG, Martinsried, Germany).

IL-6 [4] = assay: IL-6 secretion in HCEC cell culture supernatants (ELISA); format: cell-based, human; conditions: HCEC cells
Procedure: as §1
IL-6 and IL-8 secretion was analyzed by ELISA according to the manufacturer's instructions (BD Biosciences; Heidelberg, Germany). […] After blocking (300 µl 3% BSA in PBS, 2 hours, RT) and washing (0.1% Tween in PBS, (PBS-T), 100 µl of undiluted or diluted supernatant was added and incubated (2 hours, RT or overnight 4°C). Thereafter, wells were washed and incubated (1.5 hours, RT) with detection antibody (1:250 diluted in 1% BSA in PBS-T) + enzyme reagent (Streptavidin-horseradish peroxidase conjugate; 1:250 diluted in detection antibody). After washing, TMB (1:1) substrate was added to each well and incubated in a dark for 20-30 minutes. Reaction was stopped with stop solution (100 µl 1 M H2SO4) and absorption was measured using spectrophotometer (Victor X3, Perkin-elmer) at a wavelength of 450 nm with a wavelength correction at 570 nm.

STAT3 = STAT3 Y705 phosphorylation in HCEC cells (Western blotting); format: cell-based, human
Procedure: as §1, §2

AOM-DSS tumors = assay: AOM+DSS mouse model of colitis-associated tumors, treatment with DAPK-inhibitor; format: in vivo, mice
Procedure: as §2
Experimental colitis-associated tumorigenesis was performed as previously described.^43 In brief, 10mg/kg Azoxymethane (AOM; Sigma) was injected intraperitoneally into 6-8 week old C57BL/6J mice, followed by 3 cycles of DSS in drinking water. Each DSS-cycle was composed of DSS (2.5 % (w/v); MP Biomedicals) in drinking water for 7 days, followed by a recovery phase with regular drinking water for 14 days. All tumors were harvested at day 65-70.

[5] = AOM-DSS tumors, treated mice vs untreated control mice

N#C/C(=C\c1ccc(O)c(O)c1)C(=O)NCc1ccccc1 [AG490, Tyrphostin AG 490]
TNF-induced DAPK protein expression (DAPK [1]; 20 µM AG490 + TNF): elevated
TNF-induced IL-6 mRNA expression down-regulated (IL-6 [2]): 50%
DAPK mRNA expression (DAPK [3]; 20 µM AG490 pre-treatment + TNF, after 72 hours): 3.3 fold
TNF-induced IL-6 secretion down-regulated (IL-6 [4]; AG490): 50%
pSTAT3Y705 levels decreased (STAT3; 20 µM AG490 prior to TNF treatment): 35%

O=C1OC(c2ccccc2)=N/C1=C\c1cccnc1 [DAPK inhibitor, (4Z)-2-phenyl-4-(pyridine-3-ylmethylidene)-4,5-dihydro-1,3-oxazol-5-one]
TNF-induced IL-6 secretion (IL-6 [4]; 0.66 ng/ml TNF, 10 µM DAPK inhibitor, after 6 and 24 hours): significantly increased
tumors in the gut (endoscopy) (AOM-DSS tumors; AOM-DSS mice, with vs without DAPK-inhibitor): less and smaller tumors
tumor growth, atypia and architecture (immunohistochemical evaluation) (AOM-DSS tumors; AOM-DSS mice, untreated controls: non-invasive growth, low grade atypia, simple and tubular architecture): invasively growing, showed high grade atypia, and a complex, cribiform architecture
NFκB inhibitor plκß in tumors (Western Blotting) (AOM-DSS tumors; [5]): up-regulated
tumor suppressor p53 in tumors (Western Blotting) (AOM-DSS tumors; [5]): down-regulated
STAT3Y705 phosphorylation (STAT3; 0.66 ng/ml TNF, 10 µM DAPK inhibitor, after 24, 48, and 72 hours): enhanced

O=[N+]([O-])c1ccc2c(c1)S(=O)(=O)C=C2 [Stattic]
DAPK protein (DAPK [1]; 7 µM Stattic + TNF): enhanced
DAPK mRNA enhanced (DAPK [3]; after 48 hours): 1-5 fold
DAPK mRNA enhanced (DAPK [3]; after 72 hours): 2.8 fold
TNF-induced STAT3Y705 phosphorylation down-regulated (STAT3; 7 µM Stattic pre-treatment): up to 45%

From patent EP2767273A1, “Death-associated protein kinases, inhibitors and activators thereof for use in pharmaceutical compositions and in predictive medicine” (UNIVERSITÄTSKLINIKUM ERLANGEN, priority 2013, dated 2014)
